Results on 22 molecules are retold here after patent US12139477B2, “Compounds, salts thereof and methods for treatment of diseases” (ACADIA PHARMACEUTICALS INC., priority 2017, dated 2024).

Data set [1] deals with 5HT2A (Homo sapiens, UniProt P28223). The data set is described as follows: Receptor Selection and Amplification (R-SAT) functional assay. The data set is classed as cell-based. Also noted: expressed in transfected cells; host or cells: NIH3T3 cells, pSI mammalian expression vector. As to conditions: NIH3T3 cells; Ki from IC50 by Cheng and Prussoff; read-out: 5-HT2a (pKi) (R-SAT) (converted). From the text:
Receptor Selection and Amplification (R-SAT) Assays. […] The IC50 determined in the RSAT assay was converted into a Ki value using the method of Cheng and Prussoff, Biochem Pharmacol., 1973 Dec. 1; 22(23):3099-108. pKi is the negative of the log(Ki).

Data set [2] addresses T1, hERG channel (Homo sapiens, UniProt Q12809).
T1 construct: host or cells: CHO cells, stably transfected
The data set is described as follows: hERG assay, whole cell recordings in CHO cells (AVIVA). The data set is classed as cell-based. As to conditions: CHO cells stably expressing hERG, pH 7.4. How it is done: The most common mechanism for these adverse events is the inhibition of one or more cardiac potassium channels, in particular hERG. This current is important for cardiac myocyte repolarization and is a common target for drugs that prolong the QT interval. Test articles in this study were therefore characterized to determine their ability to inhibit the hERG channel. Ion channel activity was measured at AVIVA Biosciences Corporation (San Diego, CA), using a stably transfected Chinese Hamster Ovary (CHO) cell line expressing the hERG mRNA.
Cells: AVIVA's CHO cell line, which stably expresses hERG channels, was used for the study. Cells were cultured in DMEM/F12 containing 10% FBS, 1% penicillin/streptomycin and 500 μg/ml G418. Before testing, cells were harvested using Accumax (Innovative Cell Technologies).
Solutions: For electrophysiological recordings, the following solutions were used: External Solution: 2 mM CaCl2); 2 mM MgCl2; 4 mM KCl; 150 mM NaCl; 10 mM Glucose; 10 mM HEPES; 305-315 mOsm; pH 7.4 (adjusted with 5M NaOH); Internal Solution: 140 mM KCl; 10 mM MgCl2; 6 mM EGTA; 5 mM HEPES-Na; 5 mM ATP-Mg; 295-305 mOsm; pH 7.25 (adjusted with 1M KOH).
Electrophysiology: Whole cell recordings were performed using PX 7000A (Axon Instruments) with AVIVA's SealChip™ technology. Cells were voltage clamped at a holding potential of −80 mV. The hERG current was then activated by a depolarizing step to −50 mV for 300 ms. This first step at −50 mV was used as a baseline for measuring peak amplitude of the tail current. Next, a voltage step to +20 mV was applied for 5 s to activate the channels. Finally, a step back to −50 mV for 5 s removed activation and the deactivating tail current was recorded.
Test Article Handling and Dilutions: All test articles were prepared from 10 mM DMSO stock solutions provided by Sponsor. Solutions were mixed by sonication for 20 min, followed by vigorous vortexing. Prior to testing, compounds were diluted to test concentrations in glass vials using External Solution. Dilutions were prepared no longer than 20 min prior to use.
Electrophysiology Procedures: After achieving whole cell configuration, cells were monitored for 90 s to assess stability and then washed with External Solution for 66 s. The voltage protocol previously described was then applied to the cells every 12 s throughout the procedure. Only stable cells with recording parameters above threshold (see Quality Control section) were allowed to enter the drug addition procedure. External solution containing 0.1% DMSO (vehicle) was applied to the cells to establish a baseline. […] Test article solutions were added to cells in 4 separate additions. Cells were kept in test solution until effect of the test article reached steady state, to a maximum of 12 min. Next, 1 μM cisapride (positive control) was added. Finally, washout with External Solution was performed until the recovery current reached steady state.
Data Analysis: Data analysis was performed using DataXpress (Axon Instruments), Clampfit (Axon Instruments) and Origin (OriginLab Corporation) software.

For orientation: inhibition means the change of the read-out against control, counted positive when it falls. High values mean strong suppression, low ones little suppression.

T1 sequence (Q12809 whole entry): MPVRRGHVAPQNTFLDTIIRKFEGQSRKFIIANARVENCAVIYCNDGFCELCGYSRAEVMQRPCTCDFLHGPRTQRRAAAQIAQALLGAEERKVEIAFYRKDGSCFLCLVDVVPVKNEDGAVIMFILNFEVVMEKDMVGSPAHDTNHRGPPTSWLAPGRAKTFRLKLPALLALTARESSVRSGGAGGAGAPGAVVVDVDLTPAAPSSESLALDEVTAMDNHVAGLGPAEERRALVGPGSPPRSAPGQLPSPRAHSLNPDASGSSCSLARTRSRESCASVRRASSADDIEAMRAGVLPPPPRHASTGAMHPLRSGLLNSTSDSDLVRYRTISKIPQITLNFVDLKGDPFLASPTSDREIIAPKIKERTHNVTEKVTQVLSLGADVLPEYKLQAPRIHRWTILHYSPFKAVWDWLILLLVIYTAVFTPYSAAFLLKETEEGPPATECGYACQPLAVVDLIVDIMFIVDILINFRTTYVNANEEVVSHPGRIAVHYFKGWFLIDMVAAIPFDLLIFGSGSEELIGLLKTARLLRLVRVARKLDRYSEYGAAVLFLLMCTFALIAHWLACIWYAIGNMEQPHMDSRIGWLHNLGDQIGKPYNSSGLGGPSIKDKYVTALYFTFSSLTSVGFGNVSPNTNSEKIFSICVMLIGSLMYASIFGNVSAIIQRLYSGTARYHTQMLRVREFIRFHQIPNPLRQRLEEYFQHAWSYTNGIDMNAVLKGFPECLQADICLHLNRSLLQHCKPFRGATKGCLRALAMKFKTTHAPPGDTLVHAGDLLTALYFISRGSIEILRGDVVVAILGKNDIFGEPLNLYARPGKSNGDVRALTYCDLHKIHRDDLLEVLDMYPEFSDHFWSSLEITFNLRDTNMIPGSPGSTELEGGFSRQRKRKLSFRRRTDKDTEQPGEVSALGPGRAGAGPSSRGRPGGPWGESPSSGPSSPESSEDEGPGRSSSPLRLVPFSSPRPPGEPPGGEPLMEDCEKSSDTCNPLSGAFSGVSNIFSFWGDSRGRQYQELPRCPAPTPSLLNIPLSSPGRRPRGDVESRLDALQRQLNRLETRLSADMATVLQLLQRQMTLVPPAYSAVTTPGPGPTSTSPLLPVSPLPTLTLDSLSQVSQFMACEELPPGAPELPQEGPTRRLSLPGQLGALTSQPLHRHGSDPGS
Sequence of 5HT2A (P28223 whole entry): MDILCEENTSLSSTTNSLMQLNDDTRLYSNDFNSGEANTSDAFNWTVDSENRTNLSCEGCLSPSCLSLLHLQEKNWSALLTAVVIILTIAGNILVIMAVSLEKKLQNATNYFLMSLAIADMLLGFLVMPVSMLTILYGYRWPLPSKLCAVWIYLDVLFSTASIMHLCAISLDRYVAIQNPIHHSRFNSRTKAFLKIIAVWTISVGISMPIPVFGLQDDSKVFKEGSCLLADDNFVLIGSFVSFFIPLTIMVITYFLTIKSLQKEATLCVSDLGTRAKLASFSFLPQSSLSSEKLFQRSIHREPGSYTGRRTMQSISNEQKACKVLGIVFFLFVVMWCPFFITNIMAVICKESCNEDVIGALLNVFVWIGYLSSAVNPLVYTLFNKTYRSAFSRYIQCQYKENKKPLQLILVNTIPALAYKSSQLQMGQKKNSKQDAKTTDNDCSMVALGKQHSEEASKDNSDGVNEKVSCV

In the case of `CN1CCC(N(Cc2ccc(F)cc2F)C(=O)NCc2ccc3occc3c2)CC1` [Example 20, 3-[(1-benzofuran-5-yl)methyl]-1-[(2,4-difluorophenyl)methyl]-1-(1-methylpiperidin-4-yl)urea], the Ki in data set [1] was 1.58 nM. This molecule gave an inhibition at 1 µM in data set [2] of 30%.

On to `CC(C)Oc1ccc(CNC(=O)N(Cc2ccc(F)cc2F)C2CCN(C)CC2)cc1F` [Example 143, 1-[(2,4-difluorophenyl)methyl]-3-{[3-fluoro-4-(propan-2-yloxy)phenyl]methyl}-1-(1-methylpiperidin-4-yl)urea; Trifluoroacetic Acid], for which the Ki in data set [1] is 0.501 nM. In data set [2], this molecule displayed an inhibition at 1 µM of 41%.

Consider `CN1CCC(N(Cc2ccc(F)cc2F)C(=O)NCc2ccc(OC(C)(C)C)cc2)CC1` [Example 18, 3-{[4-(tert-butoxy)phenyl]methyl}-1-[(2,4-difluorophenyl)methyl]-1-(1-methylpiperidin-4-yl)urea], for which the Ki in data set [1] was 0.316 nM. The inhibition at 1 µM in data set [2] stood at 17%.

With `CC(C)Oc1ccc(CNC(=O)N(Cc2ccc(F)cc2F)C2CCNCC2)cc1` [Example 142, 1-[(2,4-difluorophenyl)methyl]-1-(piperidin-4-yl)-3-{[4-(propan-2-yloxy)phenyl]methyl}urea], in data set [1], the Ki is 1 nM. Besides, in data set [2], at 1 µM the inhibition was 8%.

For `CN1CCC(N(Cc2ccc(F)cc2F)C(=O)NCc2ccc(OCCCF)cc2)CC1` [Example 151, 3-[(2,4-difluorophenyl)methyl]-1-{[4-(3-fluoropropoxy)phenyl]methyl}-3-(1-methylpiperidin-4-yl)urea; Trifluoroacetic Acid], in data set [1], the Ki was 2 nM. In data set [2], this molecule yielded an inhibition at 1 µM of 16%.

Turning to `CN1CCC(N(Cc2ccc(F)cc2F)C(=O)NCc2ccc(OCC(F)F)cc2)CC1` [Example 154, 3-{[4-(2,2-difluoroethoxy)phenyl]methyl}-1-[(2,4-difluorophenyl)methyl]-1-(1-methylpiperidin-4-yl)urea; Trifluoroacetic Acid], the Ki in data set [1] was 1.26 nM. 1 µM produced 23% inhibition in data set [2].

For `COc1ccc(CNC(=O)N(Cc2ccc(F)cc2F)C2CCN(C)CC2)cc1` [Example 125, 3-[(2,4-difluorophenyl)methyl]-1-[(4-methoxyphenyl)methyl]-3-(1-methylpiperidin-4-yl)urea], the Ki in data set [1] is 3.98 nM. This molecule also gave an inhibition at 1 µM in data set [2] of 17%.

For the molecule `C=CCOc1ccc(CNC(=O)N(Cc2ccc(F)cc2F)C2CCN(C)CC2)cc1` [Example 19, 3-(4-(allyloxy)benzyl)-1-(2,4-difluorobenzyl)-1-(1-methylpiperidin-4-yl)urea], the Ki in data set [1] was 1.58 nM. The molecule also registered an inhibition at 1 µM in data set [2] of 33%.

On to `CN1CCC(N(Cc2ccc(F)cc2F)C(=O)NCc2ccc(OC(CF)CF)cc2)CC1` [Example 153, 3-[(2,4-difluorophenyl)methyl]-1-({4-[(1,3-difluoropropan-2-yl)oxy]phenyl}methyl)-3-(1-methylpiperidin-4-yl)urea; Trifluoroacetic Acid], for which, in data set [1], the Ki was 1.58 nM. Moreover, the inhibition at 1 µM in data set [2] was found to be 29%.

For the molecule `CC(C)(C)Oc1ccc(CNC(=O)N(Cc2ccc(F)cc2F)C2CCNCC2)cc1` [Example 149, 3-{[4-(tert-butoxy)phenyl]methyl}-1-[(2,4-difluorophenyl)methyl]-1-(piperidin-4-yl)urea; Trifluoroacetic Acid], the Ki in data set [1] is 1 nM. The inhibition at 1 µM in data set [2] came to 40%.

Consider `CN1CCC(N(Cc2ccc(F)cc2F)C(=O)NCc2ccc3c(c2)CC(C)(C)O3)CC1` [Example 8, 1-[(2,4-difluorophenyl)methyl]-3-[(2,2-dimethyl-2,3-dihydro-1-benzofuran-5-yl)methyl]-1-(1-methylpiperidin-4-yl)urea], for which the Ki in data set [1] is 0.794 nM. Further, the inhibition at 1 µM in data set [2] amounted to 22%.

`CC(C)COc1ccc(CNC(=O)N(Cc2ccc(F)cc2)C2CCN(C)CC2)cc1F` [Example 6, 3-{[3-fluoro-4-(2-methylpropoxy)phenyl]methyl}-1-[(4-fluorophenyl)methyl]-1-(1-methylpiperidin-4-yl)urea]: the Ki in data set [1] is 2 nM. This molecule registered an inhibition at 1 µM in data set [2] of 70%.

Regarding `CN1CCC(N(Cc2ccc(F)cc2F)C(=O)NCc2ccc3c(c2)OCCOC3)CC1` [Example 52], the Ki in data set [1] was 39.8 nM. The inhibition at 1 µM in data set [2] worked out at 8%.

With `CCCOc1ccc(CNC(=O)N(Cc2ccc(F)cc2F)C2CCNCC2)cc1` [Example 76, 1-[(2,4-difluorophenyl)methyl]-1-(piperidin-4-yl)-3-[(4-propoxyphenyl)methyl]urea; Trifluoroacetic Acid], the Ki in data set [1] is 3.98 nM. The molecule also yielded an inhibition at 1 µM in data set [2] of 12%.

Regarding `CC(C)COc1ccc(CNC(=O)N(Cc2ccc(F)cc2F)C2CCNCC2)cc1` [Example 4, 1-[(2,4-difluorophenyl)methyl]-3-{[4-(2-methylpropoxy)phenyl]methyl}-1-(piperidin-4-yl)urea], the Ki in data set [1] was 2.51 nM. The molecule also registered an inhibition at 1 µM in data set [2] of 11%.

With `Cc1ccc(CN(C(=O)NCc2ccc(OC(C)C)cc2)C2CCN(C)CC2)c(F)c1` [Example 115, 1-[(2-fluoro-4-methylphenyl)methyl]-1-(1-methylpiperidin-4-yl)-3-{[4-(propan-2-yloxy)phenyl]methyl}urea; Trifluoroacetic Acid], in data set [1], the Ki was 0.316 nM. The inhibition at 1 µM in data set [2] was found to be 49%.

For `CC(C)COc1ccc(CNC(=O)N(Cc2ccc(Cl)cc2F)C2CCN(C)CC2)cc1` [Example 139, 1-[(4-chloro-2-fluorophenyl)methyl]-1-(1-methylpiperidin-4-yl)-3-{[4-(2-methylpropoxy)phenyl]methyl}urea; Trifluoroacetic Acid], in data set [1], the Ki was 3.98 nM. Moreover, 1 µM produced 35% inhibition in data set [2].

Take `COc1cc(CNC(=O)N(Cc2ccc(F)cc2F)C2CCN(C)CC2)ccc1Cl` [Example 98, 3-[(4-chloro-3-methoxyphenyl)methyl]-1-[(2,4-difluorophenyl)methyl]-1-(1-methylpiperidin-4-yl)urea; Trifluoroacetic Acid]: the Ki in data set [1] is 3.16 nM. For the same molecule, in data set [2], 1 µM produced 62% inhibition.

For `CN1CCC(N(Cc2ccc(F)cc2F)C(=O)NCc2ccc3c(c2)COC3)CC1` [Example 95, 1-[(2,4-difluorophenyl)methyl]-3-[(1,3-dihydro-2-benzofuran-5-yl)methyl]-1-(1-methylpiperidin-4-yl)urea; Trifluoroacetic Acid], the Ki in data set [1] was 50.1 nM. This molecule also registered an inhibition at 1 µM in data set [2] of 8%.

For `Cc1noc2ccc(CNC(=O)N(Cc3ccc(F)cc3F)C3CCN(C)CC3)cc12` [Example 28], in data set [1], the Ki is 3.98 nM. Also, the inhibition at 1 µM in data set [2] amounted to 32%.

Consider `CN1CCC(N(Cc2ccc(F)cc2F)C(=O)NCc2ccc3c(c2)C(C)(C)CO3)CC1` [Example 9, 1-[(2,4-difluorophenyl)methyl]-3-[(3,3-dimethyl-2,3-dihydro-1-benzofuran-5-yl)methyl]-1-(1-methylpiperidin-4-yl)urea], for which the Ki in data set [1] was 7.94 nM. The inhibition at 1 µM in data set [2] was 63%.

For the molecule `CC(C)COc1ccc(CNC(=O)N(Cc2ccc(F)cc2)C2CCN(C)CC2)c(O)c1` [Example 14, 1-[(4-fluorophenyl)methyl]-3-{[2-hydroxy-4-(2-methylpropoxy)phenyl]methyl}-1-(1-methylpiperidin-4-yl)urea], in data set [1], the Ki is 1.58 nM. This molecule came in with an inhibition at 1 µM in data set [2] of 77%.
